Source: US11446265B2, “Reagents, compositions and methods for improving viability and function of cells, tissues and organs” (TARGA BIOMEDICAL, priority 2016, dated 2022)

Legend:
[1] = tested on: human mesenchymal stem cells (hMSC); assay: Proteomic analysis (mass spectrometry) of conditioned media of treated hMSC; format: cell-based; details: one hour Celastrol 10^−6 M
Protocol: Conditioned cell media was collected, concentrated, proteins were separated by gel electrophoresis and analyzed by mass spectrometry and identified through database search.
Briefly, rat MSCs were treated in suspension with conditioning compounds for 60 minutes. Cells were then washed, labeled with fluorescent cell tracker and injected at t=0 in rat left ischemic hindlimb. Transplanted cells were imaged in vivo until day 9 using Optix™ MX3 Molecular Imaging System from ART (FIG. 2: A,B).

[2] = tested on: human mesenchymal stem cells (hMSC); assay: mRNA expression in hMSC by real-time PCR; format: cell-based
Text: FIG. 25A is a table representing mRNA expression of selected genes measured by real-time PCR in human mesenchymal stem cells (hMSC) conditioned with Celastrol alone or in combination with selected adjunct agents. Results are expressed as fold change versus Vehicle-treated cells.
FIG. 25B is a table representing mRNA expression of selected genes measured by real-time PCR in human mesenchymal stem cells (hMSC) conditioned with selected Celastrol analogs alone or in combination with selected adjunct agents. Results are expressed as fold change versus Vehicle-treated cells.
Results are expressed as fold change versus Vehicle-treated cells. (Arbitrary angiogenic index: (VEGFa+FGF2+SDF1)*2) (A=Additive effect; S=Synergistic effect).
(§1) To test the second main condition, MSCs were treated with the candidate pharmaco-optimizers for 1 hour, followed by 3 hours washout period. Cell mRNA was extracted and expression of genes of interest was quantified by real time PCR. In additional MSC cultures, cells were treated for one hour, washed and cultured in low serum media for 24 hours. The media containing paracrine factors secreted by MSCs was then placed in contact with H9c2 cardiomyoblast cell line. H9c2 cells were then submitted to the hypoxia/serum starvation (<1% O2 in hypoxia chamber in low serum media for 48 hours) or oxidative stress (incubation in media for 1 hour spiked with 0-1 mM H2O2). Viability status of H9c2 cells was evaluated using the LIVE/DEAD assay as detailed above.

[3] = tested on: human mesenchymal stem cells (hMSCs); assay: VEGFa protein secreted by hMSC into culture medium; format: cell-based; details: 1-hour treatment combined with Celastrol; for VEGF protein after 48 hours in hypoxic condition: compared with normal culture; for VEGF protein after 48 hours in normal culture: normoxic
[4] = tested on: rat mesenchymal stem cells (rMSC); assay: rMSC viability after hypoxia/serum starvation (LIVE/DEAD); format: cell-based; details: 1-hour treatment; for protection of rMSCs from 48-hour hypoxia induced cell death: compound alone
Protocol: (§2) To test the first main condition, MSCs (either sourced from rat or humans) were treated with the candidate pharmaco-optimizers, washed and submitted to hypoxia/serum starvation (<1% O2 in hypoxia chamber in low serum media for 48-72 hours) or oxidative stress (incubation in media for 1 hour spiked with 0-2 mM H2O2), which mimic the major lethal stressors present in the ischemic transplant microenvironment. Viability status of cells are assessed using the LIVE/DEAD viability/cytotoxicity kit (Life Technologies™) and results are quantified by Operetta high content screening (HCS) apparatus equipped with Harmony automated analysis software (Perkin Elmer™).

[5] = tested on: rat mesenchymal stem cells (rMSC); assay: rMSC viability after oxidative stress (H2O2, LIVE/DEAD); format: cell-based; details: 1-hour treatment
Protocol: as §2

H9c2 cardiomyoblasts [6] = assay: H9c2 viability after oxidative challenge, direct treatment with Celastrol combinations; format: cell-based, rat; details: 1-hour treatment combined with Celastrol; 1 mM H2O2 for 1 hour
H9c2 cells = assay: H9c2 viability in oxidative stress after pre-conditioning with media from treated rMSC (paracrine); format: cell-based, rat; details: 24-hour preconditioning with media from treated rMSC
Protocol: as §1

[7] = tested on: rat mesenchymal stem cells (rMSC); assay: mRNA expression in rMSC by real time PCR; format: cell-based; details: for effect on Celastrol-induced Catalase (CAT) mRNA expression / effect on Celastrol-induced FGF2 mRNA expression / effect on Celastrol-induced Glutathione peroxidase (GPx) mRNA expression / effect on Celastrol-induced Glutathione reductase (GR) mRNA expression / effect on Celastrol-induced HSP32 (HO-1) mRNA expression / effect on Celastrol-induced HSP70 mRNA expression / effect on Celastrol-induced Superoxide dismutase 1 (SOD1) mRNA expression / effect on Celastrol-induced VEGFα mRNA expression / effect on Celastrol-induced downregulation of TNFα mRNA / effect on Celastrol-induced HSP70 expression in two other rMSC cell lines: combined with Celastrol
Protocol: as §1
Combination Treatments Tested—First Experiment: Celastrol (1 μM) or Gedunin (1 μM)+EGCG (1 μM, 10 μM) or TBHQ (1 μM, 5 μM)

H9c2 cardiomyoblasts [8] = assay: HO-1 and VEGFa mRNA in H9c2 cardiomyoblasts by real-time PCR; format: cell-based, rat; details: H9c2, 1-hour with Celastrol plus adjunct, 3 hour washout in normoxic or hypoxic condition
Text: Results are expressed as fold change versus Vehicle-treated h9c2.

[9] = rMSC, 1-hour treatment and 3-hour washout
[10] = rMSC, 1-hour treatment and 3-hour washout, combined with Gedunin
[11] = 1-hour treatment and 3-hour washout, combined with Celastrol

Compound | ranking as adjunct agent in combination with Celastrol or Celastrol analogs (gene expression) ([2]; FIGS. 25A, 25B, 26A to 26D) | VEGF protein after 48 hours in hypoxic condition [3] | VEGF protein after 48 hours in normal culture [3] | protection of rMSCs from 48-hour hypoxia induced cell death [4] | viability of H9c2 cells following oxidative challenge (H9c2 cardiomyoblasts [6]) | protection of H9c2 cells from oxidative stress induced death (paracrine) (H9c2 cells) | effect on Celastrol-induced Catalase (CAT) mRNA expression [7, 9] | effect on Celastrol-induced FGF2 mRNA expression [7, 9] | effect on Celastrol-induced Glutathione peroxidase (GPx) mRNA expression [7, 9] | effect on Celastrol-induced Glutathione reductase (GR) mRNA expression [7, 9] | effect on Celastrol-induced HSP32 (HO-1) mRNA expression [7, 9] | effect on Celastrol-induced HSP70 mRNA expression [7, 9] | effect on Celastrol-induced Superoxide dismutase 1 (SOD1) mRNA expression [7, 9] | effect on Celastrol-induced VEGFα mRNA expression [7, 9] | effect on Celastrol-induced downregulation of TNFα mRNA [7, 9] | effect on Gedunin-induced downregulation of TNFα mRNA [7, 10] | effect on Celastrol-induced HSP70 expression in two other rMSC cell lines [7] | other results
CC1=C(O)C(=O)C=C2C1=CC=C1[C@@]2(C)CC[C@@]2(C)[C@@H]3C[C@](C)(C(=O)O)CC[C@]3(C)CC[C@]12C [Celastrol] | – | – | – | – | – | – | – | – | – | – | – | – | – | – | – | – | – | increased level of CAT in the culture media [1]: 1,7 fold; increased level of GSH in the culture media [1]: 2,8 fold; increased level of HGF in the culture media [1]: 2,1 fold; increased level of HO1 in the culture media [1]: 2,2 fold; increased level of HSP70 in the culture media [1]: 1,8 fold; increased level of HSP90a in the culture media [1]: 7,0 fold; increased level of HSP90b in the culture media [1]: 2,2 fold; increased level of MCSF in the culture media [1]: 24,4 fold; increased level of TRX in the culture media [1]: 2,5 fold
COc1cc(/C=C/C(=O)CC(=O)/C=C/c2ccc(O)c(OC)c2)ccc1O [Curcumin] | among top adjunct agents | even greater expression of VEGF protein | additive to synergistic increase in VEGF protein | – | – | – | – | – | – | – | – | – | – | – | – | – | – | –
Cc1c(O)c(O)cc2c1CC=C1[C@@]2(C)CC[C@@]2(C)[C@@H]3C[C@](C)(C(=O)O)CC[C@]3(C)CC[C@]12C [Dihydrocelastrol, dihydrocelastrol] | – | – | – | – | – | – | – | – | – | – | – | – | – | – | – | – | – | ranking as HSP90 inhibitor from expression of HSPs, growth factors, antioxidant proteins/enzymes, cytokines, matrix remodeling proteins ([2]; FIGS. 25A, 25B, 26A to 26D): best HSP90 inhibitors
O=C(O[C@@H]1Cc2c(O)cc(O)cc2O[C@@H]1c1cc(O)c(O)c(O)c1)c1cc(O)c(O)c(O)c1 [EGCG, epigallocatechin gallate] | among top adjunct agents | even greater expression of VEGF protein | additive to synergistic increase in VEGF protein | not | synergistic increase in viability | protects | synergistic increase | synergistic increase | synergistic increase | synergistic increase | synergistic increase | synergistic increase | synergistic increase | synergistic increase | synergistically accentuate | synergistically accentuate | synergistic increase | effect on Celastrol-mediated protection of rMSCs from hypoxia induced cell death ([4]; combined with Celastrol): potentiates Celastrol-mediated protection; effect on Celastrol-induced protection of rMSCs from oxidative stress induced death ([5]; combined with Celastrol): potentiates Celastrol-induced protection; protection of rMSCs from oxidative stress induced death ([5]; compound alone): protect; effect on Celastrol-induced HSP32 (HO-1) mRNA expression in human MSC [2, 11]: synergistic increase; effect on Celastrol-induced HSP70 mRNA expression in human MSC [2, 11]: synergistic increase; mRNA expression of HO-1 (H9c2 cardiomyoblasts [8]): increased mRNA expression; mRNA expression of VEGFa (H9c2 cardiomyoblasts [8]): increased mRNA expression
CC(C)(C)c1cc(O)ccc1O [tBHQ, tert-Butylhydroquinone] | among top adjunct agents | even greater expression of VEGF protein | additive to synergistic increase in VEGF protein | not | synergistic increase in viability | protects | synergistic increase | synergistic increase | synergistic increase | synergistic effect only at low dose | synergistic increase | synergistic increase | no effect | decreases | synergistically accentuate | synergistically accentuate | no effect | FGF2 mRNA expression, combination with Gedunin [7, 10]: increased; effect on Gedunin expression of VEGF ([7]; rMSC, combined with Gedunin): decreases
